Measurements: the supplement of paper PMC10307832

What was measured:
Experiment in all cases: relative viability (nuclei count vs DMSO), 5 days (fraction); higher = more cells survive
NCI-H460 = test system: NCI-H460
Procedure, shortened: (§1)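 Lung cancer cell lines, seeded in 1536-well plates, were treated the following day by pin tool with a single drug or with five library-drug doses (not always all listed) in √10 steps on top of a fixed anchor-drug dose. Cells were fixed and nuclei stained in one step after 5 days, and nuclei were counted. Relative viability is the nuclei count for treated wells divided by that for vehicle wells, reported as medians of duplicate plates.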

NCI-H1734 = test system: NCI-H1734
Procedure, shortened: as §1

NCI-H3122 = test system: NCI-H3122
Procedure, shortened: as §1

NCI-H838 = test system: NCI-H838
Procedure, shortened: as §1

NCI-H2347 = test system: NCI-H2347
Procedure, shortened: as §1

NCI-H520 = test system: NCI-H520
Procedure, shortened: as §1

NCI-H1944 = test system: NCI-H1944
Procedure, shortened: as §1

NCI-H596 = test system: NCI-H596
Procedure, shortened: as §1

EKVX = test system: EKVX
Procedure, shortened: as §1

NCI-H441 = test system: NCI-H441
Procedure, shortened: as §1

H3255 = test system: H3255
Procedure, shortened: as §1

SW 1573 = test system: SW 1573
Procedure, shortened: as §1

LK-2 = test system: LK-2
Procedure, shortened: as §1

NCI-H1755 = test system: NCI-H1755
Procedure, shortened: as §1

NCI-H2085 = test system: NCI-H2085
Procedure, shortened: as §1

NCI-H1355 = test system: NCI-H1355
Procedure, shortened: as §1

NCI-H1650 = test system: NCI-H1650
Procedure, shortened: as §1

NCI-H2228 = test system: NCI-H2228
Procedure, shortened: as §1

A-427 = test system: A-427
Procedure, shortened: as §1

ChaGo-K-1 = test system: ChaGo-K-1
Procedure, shortened: as §1

NCI-H1666 = test system: NCI-H1666
Procedure, shortened: as §1

NCI-H322M = test system: NCI-H322M
Procedure, shortened: as §1

CCCCCCCCCCCC1=C(O)C(=O)C=C(O)C1=O [Embelin] + CC1(C)CCC(c2ccc(Cl)cc2)=C(CN2CCN(c3ccc(C(=O)NS(=O)(=O)c4ccc(N[C@H](CCN5CCOCC5)CSc5ccccc5)c(S(=O)(=O)C(F)(F)F)c4)cc3)CC2)C1 [Navitoclax] (partner 0.5 µM)
relative viability (NCI-H460; first compound 0.08 µM): 1.07 | relative viability (NCI-H460; first compound 0.8 µM): 1.26 | relative viability (NCI-H460; first compound 2.53 µM): 1.4 | relative viability (NCI-H460; first compound 8 µM): 1.08 | relative viability (NCI-H1734; first compound 0.08 µM): 0.847 | relative viability (NCI-H1734; first compound 0.8 µM): 1.09 | relative viability (NCI-H1734; first compound 2.53 µM): 1.23 | relative viability (NCI-H1734; first compound 8 µM): 0.894 | relative viability (NCI-H3122; first compound 0.08 µM): 1.05 | relative viability (NCI-H3122; first compound 0.8 µM): 1.01 | relative viability (NCI-H3122; first compound 2.53 µM): 0.985 | relative viability (NCI-H3122; first compound 8 µM): 1.02 | relative viability (NCI-H838; first compound 0.08 µM): 1.19 | relative viability (NCI-H838; first compound 0.8 µM): 1.25 | relative viability (NCI-H838; first compound 2.53 µM): 1.2 | relative viability (NCI-H838; first compound 8 µM): 1.18 | relative viability (NCI-H2347; first compound 0.08 µM): 0.746 | relative viability (NCI-H2347; first compound 0.8 µM): 0.95 | relative viability (NCI-H2347; first compound 2.53 µM): 1.01 | relative viability (NCI-H2347; first compound 8 µM): 0.811 | relative viability (NCI-H520; first compound 0.08 µM): 1.24 | relative viability (NCI-H520; first compound 0.8 µM): 1.26 | relative viability (NCI-H520; first compound 2.53 µM): 1.07 | relative viability (NCI-H520; first compound 8 µM): 1.04 | relative viability (NCI-H1944; first compound 0.08 µM): 1.01 | relative viability (NCI-H1944; first compound 0.8 µM): 1.11 | relative viability (NCI-H1944; first compound 2.53 µM): 1.06 | relative viability (NCI-H1944; first compound 8 µM): 0.941 | relative viability (NCI-H596; first compound 0.08 µM): 0.934 | relative viability (NCI-H596; first compound 0.8 µM): 1.06 | relative viability (NCI-H596; first compound 2.53 µM): 1.12 | relative viability (NCI-H596; first compound 8 µM): 0.908 | relative viability (EKVX; first compound 0.08 µM): 0.913 | relative viability (EKVX; first compound 0.8 µM): 0.895 | relative viability (EKVX; first compound 2.53 µM): 0.917 | relative viability (EKVX; first compound 8 µM): 0.938 | relative viability (NCI-H441; first compound 0.08 µM): 0.52 | relative viability (NCI-H441; first compound 2.53 µM): 0.56 | relative viability (NCI-H441; first compound 8 µM): 0.667 | relative viability (H3255; first compound 0.08 µM): 0.516 | relative viability (H3255; first compound 0.8 µM): 0.674 | relative viability (H3255; first compound 2.53 µM): 0.551 | relative viability (H3255; first compound 8 µM): 0.599 | relative viability (SW 1573; first compound 0.08 µM): 0.973 | relative viability (SW 1573; first compound 0.8 µM): 0.976 | relative viability (SW 1573; first compound 2.53 µM): 1.02 | relative viability (SW 1573; first compound 8 µM): 1.02 | relative viability (LK-2; first compound 0.08 µM): 0.904 | relative viability (LK-2; first compound 0.8 µM): 1.2 | relative viability (LK-2; first compound 2.53 µM): 1.26 | relative viability (LK-2; first compound 8 µM): 0.809 | relative viability (NCI-H1755; first compound 0.08 µM): 0.993 | relative viability (NCI-H1755; first compound 0.8 µM): 1.03 | relative viability (NCI-H1755; first compound 2.53 µM): 1.07 | relative viability (NCI-H1755; first compound 8 µM): 0.991 | relative viability (NCI-H2085; first compound 0.08 µM): 1.09 | relative viability (NCI-H2085; first compound 0.8 µM): 1.31 | relative viability (NCI-H2085; first compound 2.53 µM): 1.2 | relative viability (NCI-H2085; first compound 8 µM): 1 | relative viability (NCI-H1355; first compound 0.08 µM): 1.04 | relative viability (NCI-H1355; first compound 0.8 µM): 1.05 | relative viability (NCI-H1355; first compound 2.53 µM): 1.06 | relative viability (NCI-H1355; first compound 8 µM): 0.884 | relative viability (NCI-H1650; first compound 0.08 µM): 1.27 | relative viability (NCI-H1650; first compound 0.8 µM): 1.37 | relative viability (NCI-H1650; first compound 2.53 µM): 1.57 | relative viability (NCI-H1650; first compound 8 µM): 1.36 | relative viability (NCI-H2228; first compound 0.08 µM): 0.793 | relative viability (NCI-H2228; first compound 0.8 µM): 0.955 | relative viability (NCI-H2228; first compound 2.53 µM): 1.28 | relative viability (NCI-H2228; first compound 8 µM): 0.604 | relative viability (A-427; first compound 0.08 µM): 0.975 | relative viability (A-427; first compound 0.8 µM): 0.929 | relative viability (A-427; first compound 2.53 µM): 0.939 | relative viability (A-427; first compound 8 µM): 1 | relative viability (ChaGo-K-1; first compound 0.08 µM): 1.17 | relative viability (ChaGo-K-1; first compound 0.8 µM): 1.54 | relative viability (ChaGo-K-1; first compound 2.53 µM): 0.956 | relative viability (ChaGo-K-1; first compound 8 µM): 0.777 | relative viability (NCI-H1666; first compound 0.08 µM): 1.21 | relative viability (NCI-H1666; first compound 0.8 µM): 1.22 | relative viability (NCI-H1666; first compound 2.53 µM): 0.995 | relative viability (NCI-H1666; first compound 8 µM): 0.999 | relative viability (NCI-H322M; first compound 0.08 µM): 1.1 | relative viability (NCI-H322M; first compound 0.8 µM): 1.37 | relative viability (NCI-H322M; first compound 2.53 µM): 1.48 | relative viability (NCI-H322M; first compound 8 µM): 1.12
